Target: T1, AdipoR1 (Homo sapiens, UniProt Q96A54)
T1 sequence (Q96A54 1-375): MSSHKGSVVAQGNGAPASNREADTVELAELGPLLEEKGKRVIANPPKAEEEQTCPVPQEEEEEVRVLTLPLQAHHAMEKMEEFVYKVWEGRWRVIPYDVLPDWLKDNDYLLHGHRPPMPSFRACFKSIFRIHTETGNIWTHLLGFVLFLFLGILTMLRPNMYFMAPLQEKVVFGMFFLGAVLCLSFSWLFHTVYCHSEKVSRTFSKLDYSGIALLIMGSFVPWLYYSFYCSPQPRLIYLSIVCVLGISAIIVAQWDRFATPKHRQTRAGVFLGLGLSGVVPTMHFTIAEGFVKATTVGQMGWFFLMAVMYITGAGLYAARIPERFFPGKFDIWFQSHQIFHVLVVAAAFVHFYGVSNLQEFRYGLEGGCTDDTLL
Experiment: Measurement of AMPK phosphorylation ability (Assay 1), HEK 293T cells, Western blotting
Format: cell-based
Design: HEK 293T cells (ATCC; CRL-3216, medium; host or cells: HEK 293T
Conditions: 10 minutes
Description: The AMPK phosphorylation ability of the respective compounds according to the present invention was measured by using differentiated C2C12 cells or HEK 293T cells.
HEK 293T cells (ATCC; CRL-3216, medium; DMEM, Fetal Bovine Serum (FBS)) were cultured in a 12- or 24-well plate until they reached 100% confluency (37° C., 5% CO2).
After starvation, a test compound listed in Tables 10 and 11 (concentration: 25 μM, 50 μM) was added thereto, and after 10 minutes, the medium was discarded and the plate was frozen with liquid nitrogen.
To the 12- or 24-well cell plate which had been frozen was added 100 or 150 μL of Cell lysis buffer pH 7.4 (50 mM HEPES (pH 7.4), 2 mM sodium orthovanadate, 10 mM sodium pyrophosphate, 10 mM NaF, 2 mM EDTA, 2 mM EGTA, 0.1% (v/v) NP-40, 0.2 mM PMSF), and the cells were scraped off with a cell scraper, suspended and transferred into a micro centrifugal tube. And then, the cells were ultrasonically crushed (1 second×3 times) with a sonicator. Centrifugation was performed at 4° C. at 15,000 rpm for 15 minutes, and the supernatant was recovered into a new tube.
To 100 μL of the supernatant was added 25 μL of 5× sample buffer (280 mM Tris-HCl (pH 6.9), 40% glycerol, 10% (3-mercaptoethanol, 13% SDS, a small amount of bromophenol blue) and mixed together. The rest of the supernatant was used for protein quantification, and the protein concentrations were uniformed by adding 1× sample buffer depending on the concentration of each sample.
An electrophoresis chamber was filled with 1× SDS buffer (25 mM Tris-HCl, 250 mM glycine, 0.1% SDS), and the sample was applied to a well of polyacrylamide gel. Electrophoresis was performed until the bromophenol blue in the sample reached to the bottom of the gel.
A filter paper was soaked in 1× Transfer buffer sufficiently, above which the PVDF membrane and the gel after electrophoresis were stacked in this order, and thereabove a filter paper which had been soaked in 1× Transfer buffer sufficiently was further stacked, from which an air was removed and the resultant was set in semi-dry type transfer apparatus and transferred (7V, 35 minutes).
An unnecessary portion of the blotted membrane was cutoff, and the rest was immediately soaked in blocking buffer (5% skimmed milk in Rinse buffer), and shaken at room temperature at 40 rpm for 3 hours.
After blocking, the membrane was transferred into Rinse buffer, and washed at room temperature for 10 minutes while shaking. The membrane was soaked in a primary antibody solution (AMPK alpha Antibody (Cell signaling; #2532) 1/1,000 in Rinse buffer, Phospho-AMPK alpha (Thr172) (40H9) antibody (Cell signaling; #2535) 1/1,000 in Rinse buffer), and shaken at 4° C. at 40 rpm overnight.
The membrane was soaked in a secondary antibody solution (goat anti-rabbit IgG-HRP Antibody (Santa Cruz; sc-2030) 1/2,000 in Rinse buffer), and shaken at room temperature at 40 rpm for 1 hour.
After the membrane was washed for 45 minutes in the same way as after the primary antibody reaction, the membrane was soaked in a chemiluminescent reaction solution (ECL Western Blotting Detection Reagents, GE Healthcare) for about 1 minute. An excess of the reaction solution was removed, and then the membranes were arranged on a transparent film and sandwiched with it, with which an X-ray film was exposed in a darkroom (for about several seconds to 60 seconds) to develop the film.
The X-ray film was scanned to take the image, for which the band was measured by using the image analysis software “Image J” to determine the respective amounts of pAMPK and AMPK.

| pAMPK/AMPK (%) (25 μM) | pAMPK/AMPK (%) (50 μM) | SMILES |
| --- | --- | --- |
| 70.10 | 63.92 | Cc1ccccc1CN1CCC(NC(=O)COc2ccc(C(C)C)cc2)CC1 [Compound 1] |
| 77.78 | 90.47 | CC(C)c1ccc(OCC(=O)NC2CCN(C(C)c3ccccc3)CC2)cc1 (stereo not drawn) [Compound 2] |
| 39.02 | 44.32 | Cc1cc(OCC(=O)NC2CCN(C(N)=O)CC2)ccc1C(C)C [Compound 3] |
| 47.44 | 45.44 | COc1ccccc1CN1CCC(NC(=O)COc2ccc(C)cc2)CC1 [Compound 4] |
| 69.72 | 62.88 | CCc1ccc(OCC(=O)NC2CCN(Cc3ccc(OC)c(F)c3)CC2)cc1 [Compound 5] |
| 24.57 | 60.56 | CC(C)(C)c1ccc(OCC(=O)NC2CCN(Cc3ccc(F)cc3)CC2)cc1 [Compound 6] |
| 79.86 | 94.13 | CC(c1ccccc1)N1CCC(NC(=O)COc2ccc(-c3ccccc3)cc2)CC1 (stereo not drawn) [Compound 7] |
| 77.49 | 72.23 | Cc1ccc(C(=O)N2CCC(NC(=O)COc3ccc(C(F)(F)F)cc3)CC2)cc1 [Compound 8] |
| 23.69 | 62.46 | CC(c1ccccc1)N1CCC(NC(=O)COc2ccc(C(F)(F)F)cc2)CC1 (stereo not drawn) [Compound 9] |
| 83.62 | 72.56 | O=C(COc1ccc(I)cc1)NC1CCN(Cc2ccccc2)CC1 [Compound 10] |
| 40.65 | 39.95 | COc1cc(C(C)=O)ccc1OCC(=O)NC1CCN(C(C)c2ccccc2)CC1 (stereo not drawn) [Compound 13] |
| 63.62 | 51.87 | CC(=O)c1ccc(OCC(=O)NC2CCN(Cc3ccccc3)CC2C)cc1 (stereo not drawn) [Compound 14] |
| 55.49 | 46.30 | CCC(=O)c1ccc(OCC(=O)NC2CCN(Cc3ccccc3C)CC2)cc1 [Compound 16] |
| 88.72 | 75.82 | CCC(=O)c1ccc(OCC(=O)NC2CCN(Cc3ccc(Cl)c(Cl)c3)CC2)cc1 [Compound 17] |
| 59.58 | 72.81 | CCC(=O)c1ccc(OCC(=O)NC2CCN(Cc3ccccc3)CC2C)cc1 (stereo not drawn) [Compound 18] |
| 47.30 | 60.30 | NC(=O)c1ccc(OCC(=O)NC2CCN(Cc3ccc(F)c(F)c3)CC2)cc1 [Compound 20] |
| 61.45 | 67.26 | CCOc1ccc(C(=O)N2CCC(NC(=O)COc3ccc([N+](=O)[O-])cc3)CC2)cc1 [Compound 22] |
| 51.41 | 49.81 | CCOc1ccccc1C(=O)N1CCC(NC(=O)OCc2ccc([N+](=O)[O-])cc2)CC1 [Compound 23] |
| 23.68 | 60.46 | COc1ccc(CN2CCC(NC(=O)COc3ccc([N+](=O)[O-])cc3)CC2)cc1F [Compound 24] |
| 40.07 | 42.87 | O=C(COc1ccc(N2CCCC2=O)cc1)NC1CCN(C(=O)c2ccccc2F)CC1 [Compound 25] |

| pAMPK/AMPK (%) (25 μM) | pAMPK/AMPK (%) (50 μM) | SMILES |
| --- | --- | --- |
| 55.06 | 56.65 | CC1CN(Cc2ccccc2)CCC1NC(=O)COc1ccc(N2CCCC2=O)cc1 (stereo not drawn) [Compound 26] |
| 45.54 | 37.30 | CCOc1ccc(C(=O)N2CCC(NC(=O)COc3ccc(N4CCCC4=O)cc3)CC2)cc1 [Compound 27] |
| 71.21 | 78.89 | Cc1cccc(CN2CCC(NC(=O)COc3ccc(C4SCCCS4)cc3)CC2)c1 [Compound 28] |
| 72.45 | 74.42 | Cc1ccc(C(=O)N2CCC(NC(=O)COc3ccc(C4SCCCS4)cc3)CC2)cc1 [Compound 29] |
| 64.98 | 61.18 | CCOc1ccc(OCC(=O)NC2CCN(Cc3ccccc3C)CC2)cc1 [Compound 39] |
| 62.03 | 69.38 | CCCOc1ccc(OCC(=O)NC2CCN(Cc3ccccc3)C(C)C2)cc1 (stereo not drawn) [Compound 41] |
| 69.97 | 89.62 | CCCOc1ccc(OCC(=O)NC2CCN(C(=O)c3ccc(C)cc3)CC2)cc1 [Compound 42] |
| 77.13 | 82.95 | CCCOc1ccc(OCC(=O)NC2CCN(C(C)c3ccccc3)CC2)cc1 (stereo not drawn) [Compound 43] |
| 72.14 | 78.77 | CCCOc1ccc(OCC(=O)NC2CCN(C(=O)c3ccc(OCC)cc3)CC2)cc1 [Compound 44] |
| 67.44 | 82.01 | O=C(COc1ccc(Oc2ccccn2)cc1)NC1CCN(Cc2ccccc2)CC1 [Compound 45] |
| 42.40 | 34.07 | COc1ccccc1CN1CCN(C(=O)CCNC(=O)c2ccccc2C)CC1 [Compound 49] |
| 39.00 | 71.13 | COc1ccc(CN2CCN(C(=O)CCNC(=O)c3ccccc3C)CC2)cc1OC [Compound 50] |
| 33.33 | 55.14 | COc1ccc(CN2CCN(C(=O)CCNC(=O)c3ccccc3)CC2)c(OC)c1OC [Compound 51] |
| 66.63 | 85.17 | CC(C)(C)c1ccc(C(=O)NCCC(=O)N2CCN(Cc3cccc(O)c3)CC2)cc1 [Compound 52] |
| 57.51 | 33.78 | O=C(NCCC(=O)N1CCN(Cc2cccc(O)c2)CC1)c1ccc(Cl)cc1 [Compound 54] |
| 61.64 | 105.20 | O=C(NCCC(=O)N1CCN(Cc2ccc(F)cc2Cl)CC1)c1ccc(Cl)cc1 [Compound 55] |
| 49.23 | 40.38 | O=C(NCCC(=O)N1CCN(Cc2cccc(O)c2)CC1)c1ccc(Br)cc1 [Compound 56] |
| 30.26 | 45.31 | COc1ccccc1CN1CCN(C(=O)CCNC(=O)c2ccc(Cl)cc2)CC1 [Compound 57] |
| 41.20 | 62.58 | COc1ccccc1CN1CCN(C(=O)CCNC(=O)c2ccc(Br)cc2)CC1 [Compound 58] |
